Reference: publication PMC11050087, “Polyphenols from Maackia amurensis Heartwood Protect Neuronal Cells from Oxidative Stress and Prevent Herpetic Infection” (International Journal of Molecular Sciences, 2024)
Several values for one entry are separate records, joined by “and”; a condition that tells them apart may be missing. Identical values can stand only once.

Experiments:
[1] = system: 6-OHDA-treated Neuro-2a cells; assay: Mitochondrial membrane potential detection (TMRM) in 6-OHDA-treated cells; type: cell-based, murine; conditions: for increase of mitochondrial membrane potential: compound 10 µM, 6-OHDA 120 µM, TMRM
Procedure: We determined the effect of polyphenolic compounds from M. amurensis on 6-OHDA-induced mitochondrial dysfunction in Neuro-2a cells (Figure 6a,b).
Figure 6 The effect of polyphenolic compounds isolated from M. amurensis heartwood on mitochondrial membrane potential in Neuro-2a cells treated with 6-OHDA (120 μM) (a,b). Polyphenolic compounds isolated from M. amurensis heartwood were used at concentrations 10, 1, 0.1 μM. The data are presented as means ± SEM of three independent replicates. (*) and (***) indicate, respectively, p < 0.05 and p < 0.001 versus 6-OHDA-treated cells.
The cells were incubated for 1 h in a 96-well plate (1 × 10^4 cells/well) with polyphenolic compounds (0.1, 1 and 10 µM). Then, 6-OHDA (120 µM) was added, and cell suspension was incubated for 1 h. Cells incubated without 6-OHDA and compounds and with 6-OHDA alone were used as positive and negative control, respectively. The tetramethylrhodamine methyl (TMRM) (Sigma-Aldrich, St. Louis, MO, USA) solution (500 nM) was added to each well and cells were incubated for 30 min at 37 °C. The intensity of fluorescence was measured using a PHERAstar FSplate reader (BMG Labtech, Ortenberg, Germany) at λex = 540 nm and λem = 590 nm. The data were processed by MARS Data Analysis v. 3.01R2 (BMG Labtech, Ortenberg, Germany).

[2] = system: 6-OHDA-treated Neuro-2a cells; assay: Apoptosis profile by flow cytometry (Annexin V & Dead Cell Kit); type: cell-based, murine; conditions: Table 1; polyphenols 10 µM, 6-OHDA 100 µM, 24 h; mean
Procedure: We investigated the effect of polyphenolic compounds from M. amurensis on apoptosis profile in 6-OHDA-treated Neuro-2a cells by flow cytometry using fluorescent annexin V conjugate as a fluorescent dye. We observed significant changes in apoptosis profile in Neuro-2a cells after 6-OHDA-treatment. […] Polyphenols 3, 6 and 13 diminished the neurotoxic effect of 6-OHDA-treatment.
The cells were incubated for 1 h in a 6-well plate (5 × 10^4 cells/mL) with polyphenolic compounds (10 µM). Then, 6-OHDA (100 µM) was added, and cell suspension was incubated for 24 h. After incubation, the maintenance media was collected, and the cells were washed by cold PBS twice and incubated with trypsin-EDTA solution. The cell suspension was washed with cold PBS twice again, centrifugated and then used for apoptosis detection by Muse® Annexin V & Dead Cell Kit in accordance with the manufacturer’s instructions (Luminex, Austin, TX, USA). The fluorescence was measured with Muse® Cell Analyzer (Luminex, Austin, TX, USA) and the data were processed by Muse 1.5 Analysis software (Luminex, Austin, TX, USA).

[3] = system: 6-OHDA-treated Neuro-2a cells; assay: 6-OHDA-induced neurotoxicity model, cell viability test (MTT); type: cell-based, murine; conditions: 6-OHDA 100 µM
Procedure: Neuro-2a cells were incubated with the studied polyphenolic compounds for 1 h. Then, 100 µM of 6-hydroxydopamine 6-OHDA were added. We determined the percentage of living Neuro-2a cells after treatment with 6-OHDA (Figure 4a–d).
Figure 4 The effect of polyphenolic compounds isolated from M. amurensis heartwood on the viability of Neuro-2a cells treated with 6-OHDA (100 μM) (a–d). The viability of Neuro-2a cells treated with various compounds and 6-OHDA was measured by the MTT assay. Polyphenolic compounds isolated from M. amurensis heartwood were used at concentrations 10, 1, 0.1 μM. The data are presented as means ± SEM of three independent replicates. (*) indicate p < 0.05 versus 6-OHDA-treated cells.
After 24 h of adhesion, Neuro-2a cells (5 × 10^4 cells/mL) were treated with polyphenolic compounds at concentrations of 0.1, 1 and 10 μM for 1 h. Then, 100 µM of 6-OHDA or 1 mM of PQ (Sigma-Aldrich, St. Louis, MO, USA) were added. Cells incubated without inductors or with inductors were used as positive and negative control, respectively. Cell viability was measured after 24 h using the MTT assay.

HSV-1 [4] = assay: Virucidal activity, RT-PCR assay (HSV-1 pretreated with compounds); type: cell-based, HSV-1 strain L2; conditions: for Ct: 72 h; for −ΔCt: vs virus control; for log10: log10 of 2^−ΔCt; for 2^−ΔCt: relative level of viral DNA vs virus control
Procedure: Vero cells grown on 96-well plates were infected with the virus (100 TCID50/mL), pretreated with polyphenolic compounds at concentrations 0.1, 1 and 10 μg/mL. After 72 h of cell incubation, viral DNA was extracted from the supernatants, and the relative level of HSV-1 DNA was determined using RT-PCR. The effect of polyphenols on the relative level of viral DNA was assessed using the 2^−∆Ct method and reported as fold reduction compared to virus control.
(§1) The HSV-1 strain L2 obtained from N.F. Gamaleya Federal Research Centre for Epidemiology and Microbiology (Moscow, Russia) was grown in Vero cells as previously described.
(§2) We determined the direct inhibitory effect of polyphenolic compounds from M. amurensis heartwood on HSV-1 (virucidal effect). We mixed the virus at an infectious dose (100 TCID50/mL) with polyphenolic compounds (from 0.1 to 100 µg/mL) at a ratio of 1:1 (v/v) and incubated for an hour at 37 °C. Then, we infected the monolayer of Vero cells grown on 96-well plates (1 × 10^4 cells/well) with HSV-1 pretreated with the studied compounds. After 1 h adsorption at 37 °C, the cells were washed with phosphate-buffered saline (PBS) and overlaid by the maintenance medium with 1% FBS. The plates were incubated for 72 h at 37 °C in a CO2-incubator. The cytopathic effect (CPE) inhibition assay and real-time reverse transcription-PCR (RT-PCR) assay were used to evaluate virucidal effect of the tested compounds.
We performed the RT-PCR assay as we previously described in detail in [22]. Briefly, HSV-1 DNA was extracted after incubation from cell supernatants by using the DNA-sorb-AM (K1-12-100-CE) nucleic acid extraction kit (AmpliSens®, Moscow, Russia) according to the manufacturer′s instructions. We treated the supernatants with a lysis solution that contained guanidine chloride (chaotropic agent) in the presence of sorbent (silica particles). As the elution solution was added, the DNA was […] silica particles and separated from the sorbent particles by centrifugation.
We detected the DNA of HSV-1 in the obtained samples using the AmpliSens® HSV I, II-FRT-100F PCR kit (AmpliSens®, Moscow, Russia) on a real-time PCR instrument Rotor-Gene Q (Qiagen, Hilden, Nordrhein-Westfalen, Germany) according to the manufacturer′s instructions. The PCR reaction conditions were the following: initial denaturation at 95 °C for 15 min; then 5 cycles at 95 °C for 5 s, at 60 °C for 20 s, at 72 °C for 15 s; then 40 cycles at 95 °C for 5 s, at 60 °C for 20 s, and at 72 °C for 15 s. A negative sample was used as the amplification control for each run. The threshold cycle number Ct, was measured as the PCR cycle, where the amount of the amplified target reached the threshold value; the Ct values ≥ 37 indicated the absence of the HSV-1 DNA in the samples. We assessed the anti-HSV-1 activity of the studied compounds by the reduction in the viral DNA levels using the 2^−ΔCt method according to Equation (2):(2) ΔCt=Ctcv−Cttv where Ct is the threshold cycle number measured as the PCR cycle, where the amount of the amplified target reached the threshold value, […]

HSV-1 [5] = assay: Virucidal activity, CPE inhibition assay (HSV-1 pretreated with compounds); type: cell-based, HSV-1 strain L2; conditions: for SI: ratio of CC50 to IC50, virucidal scheme
Procedure: The antiviral activity of polyphenols from M. amurensis against HSV-1 was assessed using the cytopathic effect inhibition (CPE) assay. To study the inhibitory effect of polyphenolic compounds directly on the HSV-1 virus (direct virucidal activity), the monolayer of Vero cells grown on 96-well plates (1 × 10^4 cells/well) was infected with the virus (100 TCD50/mL), pretreated with different concentrations of polyphenolic compounds.
as §1, §2
We previously described this method in detail in [22]. We performed the MTT assay to evaluate the antiviral activity of polyphenolic compounds. The viral inhibition rate (IR, %) was calculated according to Equation (1):(1) IR, %=Atv−Acv/Acd−Acv×100, where Atv is the absorbance of cells infected with HSV-1 pretreated with the studied compounds,
We calculated the selectivity index (SI) as the ratio of CC50 to IC50. Experiments were repeated three times.

[6] = Human alphaherpesvirus 1, 72 h, read-out: 2^−ΔCt
[7] = Human alphaherpesvirus 1, 72 h, read-out: log10

NCCc1cc(O)c(O)cc1O [Compound 6-OHDA, 6-hydroxydopamine, reference compound]
decrease of TMRM fluorescence after treatment of Neuro-2a cells with 6-OHDA ([1]; 6-OHDA alone): 14%
Dead [2]: 1.11 ± 0.37%
Early apop. [2]: 42.62% and 42.62 ± 2.3%
Late apop./Dead [2]: 12.15% and 12.15 ± 1.34%
Live [2]: 44.14 ± 1.34%

COc1ccc(-c2coc3cc(O)ccc3c2=O)cc1 [Compound 8, formononetin]
effect on viability of 6-OHDA-treated Neuro-2a cells (in words) ([3]; compound 1 µM): increased the viability
effect on viability of 6-OHDA-treated Neuro-2a cells (in words) ([3]; compounds at 10, 1, 0.1 µM): weak effect on cell viability
virucidal activity against HSV-1 by RT-PCR (in words) (HSV-1 [4]; 0.1, 1 and 10 µg/mL): did not demonstrate virucidal activity
virucidal activity against HSV-1 (in words) (HSV-1 [5]; CPE assay, virus pretreated with compound): did not show virucidal activity

Oc1cc(O)cc(/C=C/c2ccc(O)c(O)c2)c1 [Compound 11, piceatannol]
increase of mitochondrial membrane potential [1]: 8–12%
effect on viability of 6-OHDA-treated Neuro-2a cells (in words) ([3]; compounds at 10, 1, 0.1 µM): weak effect on cell viability
Ct (HSV-1 [4]; 0.1 µg/mL): 18.4 ± 2.4
−ΔCt (HSV-1 [4]; 0.1 µg/mL): −0.30 ± 0.03
inhibition of HSV-1 replication by RT-PCR (in words) (HSV-1 [4]; 1 µg/mL): inhibited the replication of HSV-1
Ct (HSV-1 [4]; 1 µg/mL): 24.5 ± 3.4
−ΔCt (HSV-1 [4]; 1 µg/mL): −6.4 ± 0.8
anti-HSV-1 activity by RT-PCR (in words) (HSV-1 [4]; 10 µg/mL): significantly reduced the level of viral DNA
Ct (HSV-1 [4]; 10 µg/mL): 30.2 ± 3.9
−ΔCt (HSV-1 [4]; 10 µg/mL): −12.1 ± 1.4
activity at 0.1 µg/mL (HSV-1 [4]; [6]): 81.2 ± 11%
activity at 1 µg/mL (HSV-1 [4]; [6]): 1.18 ± 0.15%
activity at 10 µg/mL (HSV-1 [4]; [6]): 0.0228 ± 0.03%
log reduction at 0.1 µg/mL (HSV-1 [4]; [7]): 0.09 ± 0.01
log reduction at 1 µg/mL (HSV-1 [4]; [7]): 1.9 ± 0.2
log reduction at 10 µg/mL (HSV-1 [4]; [7]): 3.6 ± 0.5
IC50 (HSV-1 [5]; Human alphaherpesvirus 1, virus pretreated with compound (virucidal), CPE assay, Vero cells, 100 TCID50/mL): 6.7 µg/mL and 27.4 µM
SI (HSV-1 [5]): 37.3 ± 5.2

medicarpin [Compound 7]
increase of mitochondrial membrane potential [1]: 8–12%
effect on viability of 6-OHDA-treated Neuro-2a cells (in words) ([3]; compounds at 10, 1, 0.1 µM): weak effect on cell viability
Ct (HSV-1 [4]; 0.1 µg/mL): 18.1 ± 2.2
log10 (HSV-1 [4]; 0.1 µg/mL): 0
2^−ΔCt (HSV-1 [4]; 0.1 µg/mL): 1.0
−ΔCt (HSV-1 [4]; 0.1 µg/mL): 0
Ct (HSV-1 [4]; 1 µg/mL): 18.3 ± 2.2
log10 (HSV-1 [4]; 1 µg/mL): −0.060 ± 0.008
2^−ΔCt (HSV-1 [4]; 1 µg/mL): 0.870 ± 0.11
−ΔCt (HSV-1 [4]; 1 µg/mL): −0.20 ± 0.02
anti-HSV-1 activity by RT-PCR (in words) (HSV-1 [4]; 10 µg/mL): moderate anti-HSV-1 activity
Ct (HSV-1 [4]; 10 µg/mL): 19.8 ± 2.4
log10 (HSV-1 [4]; 10 µg/mL): −0.50 ± 0.06
2^−ΔCt (HSV-1 [4]; 10 µg/mL): 0.297 ± 0.04
−ΔCt (HSV-1 [4]; 10 µg/mL): −1.75 ± 0.20
SI (HSV-1 [5]): 2.1 ± 0.3
